Laboratory results reported in ChEMBL document CHEMBL4152208, “Synthesis and structure-activity relationships of quinolinone and quinoline-based P2X7 receptor antagonists and their anti-sphere formation activities in glioblastoma cells” (Eur J Med Chem, 2018).
Active and inactive are the calls of the source. The calls are words filed in the database; no cut-off is given here.

What was measured:
[1] = target: T1, P2X purinoceptor 7 (Homo sapiens, UniProt Q99572); experiment: Antagonist activity at human P2X7 receptor in expressed in HEK293 cells assessed as inhibition of BzATP-induced EtBr uptake; format: cell-based
T1 sequence (Q99572 whole entry): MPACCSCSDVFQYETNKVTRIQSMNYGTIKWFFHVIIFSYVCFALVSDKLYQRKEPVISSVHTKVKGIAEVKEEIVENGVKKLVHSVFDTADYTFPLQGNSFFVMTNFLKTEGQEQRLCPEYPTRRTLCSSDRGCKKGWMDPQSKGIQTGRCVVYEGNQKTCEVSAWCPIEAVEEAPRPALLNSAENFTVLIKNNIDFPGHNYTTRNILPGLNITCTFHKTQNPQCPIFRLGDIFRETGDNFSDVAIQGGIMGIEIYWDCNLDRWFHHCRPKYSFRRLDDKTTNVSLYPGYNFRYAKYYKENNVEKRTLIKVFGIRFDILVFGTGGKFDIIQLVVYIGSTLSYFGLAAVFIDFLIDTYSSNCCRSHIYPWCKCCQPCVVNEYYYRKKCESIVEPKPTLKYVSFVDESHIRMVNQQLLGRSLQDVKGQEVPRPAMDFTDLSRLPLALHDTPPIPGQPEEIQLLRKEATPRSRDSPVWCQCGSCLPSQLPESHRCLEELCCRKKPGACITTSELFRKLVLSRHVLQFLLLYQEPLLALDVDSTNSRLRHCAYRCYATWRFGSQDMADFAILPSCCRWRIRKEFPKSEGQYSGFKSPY

[2] = target: T1, P2X purinoceptor 7; experiment: Antagonist activity at human P2X7 receptor expressed in HEK293 cells assessed as inhibition of BzATP-induced EtBr uptake after 2 hrs by fluorescence assay relative to control; format: cell-based
[3] = target: T2, P2X purinoceptor 7 (Homo sapiens) (UniProt Q99572); experiment: Antagonist activity at P2X7 in LPS/IFN gamma differentiated human THP-1 cells assessed as inhibition of BzATP-induced IL-1beta release at 10 uM preincubated for 30 mins followed by BzATP stimulation for 30 mins by ELISA; format: cell-based
T2 sequence (whole entry): T1 sequence (Q99572 whole entry)

[4] = target: T2, P2X purinoceptor 7 (Homo sapiens); experiment: Antagonist activity at human P2X7 receptor expressed in HEK293 cells assessed as inhibition of BzATP-induced EtBr uptake at 1 uM after 2 hrs by fluorescence assay relative to control; format: cell-based
[5] = target: T2, P2X purinoceptor 7 (Homo sapiens); experiment: Antagonist activity at P2X7 in LPS/IFN gamma differentiated human THP-1 cells assessed as inhibition of BzATP-induced IL-1beta release at 1 uM preincubated for 30 mins followed by BzATP stimulation for 30 mins by ELISA; format: cell-based
[6] = target: T2, P2X purinoceptor 7 (Homo sapiens); experiment: Antagonist activity at human P2X7 receptor expressed in HEK293 cells assessed as inhibition of BzATP-induced EtBr uptake at 10 uM after 2 hrs by fluorescence assay relative to control; format: cell-based
[7] = Effective permeability of the compound at 50 uM after 4 hrs by BBB-PAMPA method; format: ADME; settings: read-out: Peff
[8] = target: T3, P2X purinoceptor 3 (Homo sapiens, UniProt P56373); experiment: Antagonist activity at human P2X3 receptor expressed in 1321N1 cells assessed as inhibition of ATP-induced calcium flux measured for 30 secs at 0.4 secs intervals by Flou-4-AM dye based fluorescence assay; format: cell-based; settings: read-out: IC50
T3 sequence (P56373 whole entry): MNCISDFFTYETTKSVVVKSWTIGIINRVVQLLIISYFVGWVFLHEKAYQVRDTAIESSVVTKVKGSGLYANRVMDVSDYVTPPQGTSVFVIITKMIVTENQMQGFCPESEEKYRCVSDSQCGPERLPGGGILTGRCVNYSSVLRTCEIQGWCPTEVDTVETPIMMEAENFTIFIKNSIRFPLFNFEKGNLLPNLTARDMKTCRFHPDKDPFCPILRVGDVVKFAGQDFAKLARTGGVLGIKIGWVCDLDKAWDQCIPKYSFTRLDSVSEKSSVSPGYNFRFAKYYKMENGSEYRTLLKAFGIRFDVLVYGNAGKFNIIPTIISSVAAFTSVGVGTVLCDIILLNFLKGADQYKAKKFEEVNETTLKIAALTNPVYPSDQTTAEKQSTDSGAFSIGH

[9] = Metabolic stability in human liver microsomes assessed as parent compound remaining at 1 uM up to 30 mins in presence of NADPH by LC-MS/MS analysis; format: ADME, microsome; settings: read-out: Stability

SMILES	IC50 [1]	IC50 [2]	inhibition [3]	inhibition [4]	inhibition [5]	inhibition [6]	further results
Clc1cccc(-c2nnnn2Cc2cccnc2)c1Cl	300 nM						
CC(=O)[C@H]1CC[C@H]2[C@@H]3CCC4=CC(=O)CC[C@]4(C)[C@H]3CC[C@]12C [PROGESTERONE]							Papp at 4 h, 50 µM [7]: 36.6 ×10⁻⁶ cm/s; IC50 [8]: 1600 nM
O=C1NC(=O)C(C2CCN(C(=O)c3ccc(Cl)c(C(F)(F)F)c3)CC2)C1Cc1ccc(OS(=O)(=O)c2cccc3cnccc23)cc1 (stereo unspecified)	54 nM						
COc1ccc(CCN(C)CCCC(C#N)(c2ccc(OC)c(OC)c2)C(C)C)cc1OC (stereo unspecified)							remaining at 0.5 h, 1 µM [9]: 10.5%
COC(=O)c1cc2c(NC(=O)C34CC5CC(CC(C5)C3)C4)cccc2n(Cc2ccc(OC)cc2)c1=O		120 nM	49%	76%	inactive	87%	

More lines, main results first:

IC50 [1]	IC50 [2]	inhibition [3]	inhibition [4]	inhibition [5]	inhibition [6]	SMILES	further results
85 nM						N[C@H]1CCN(Cc2ccc(Cl)c(C(=O)NCC34CC5CC(CC(C5)C3)C4)c2)C1	
	809 nM	42%	61%	38%	85%	COC(=O)c1cc2c(NC(=O)C34CC5CC(CC(C5)C3)C4)cccc2n(Cc2ccc([N+](=O)[O-])cc2)c1=O	
	263 nM	28%	82%	11%	87%	CCCOC(=O)c1cc2c(NC(=O)C34CC5CC(CC(C5)C3)C4)cccc2n(Cc2ccc(OC)cc2)c1=O	
